# Test results published in US10335503B2, “Compound that specifically binds to AMPA receptor” (Public University Corporation Yokohama City University, priority 2015, dated 2019).
# How the values were obtained:
# α2C-Adrenergic = α2C-Adrenergic (Homo sapiens, UniProt P18825); test: Receptor binding panel: α2C-Adrenergic; details: K-2 at 1 × 10^−7 mol/L
# β2-Adrenergic = β2-Adrenergic (Homo sapiens, UniProt P07550); test: Receptor binding panel: β2-Adrenergic; details: K-2 at 1 × 10^−7 mol/L
# Ca channel (Type N) = Ca channel (Type N) (Homo sapiens, UniProt Q00975); test: Receptor binding panel: Ca channel (Type N); details: K-2 at 1 × 10^−7 mol/L
# Dopamine D2 short = Dopamine D2 short (Homo sapiens, UniProt P14416); test: Receptor binding panel: Dopamine D2 short; details: K-2 at 1 × 10^−7 mol/L
# Dopamine D2 short, sequence (P14416 1-414 isoform P14416-2): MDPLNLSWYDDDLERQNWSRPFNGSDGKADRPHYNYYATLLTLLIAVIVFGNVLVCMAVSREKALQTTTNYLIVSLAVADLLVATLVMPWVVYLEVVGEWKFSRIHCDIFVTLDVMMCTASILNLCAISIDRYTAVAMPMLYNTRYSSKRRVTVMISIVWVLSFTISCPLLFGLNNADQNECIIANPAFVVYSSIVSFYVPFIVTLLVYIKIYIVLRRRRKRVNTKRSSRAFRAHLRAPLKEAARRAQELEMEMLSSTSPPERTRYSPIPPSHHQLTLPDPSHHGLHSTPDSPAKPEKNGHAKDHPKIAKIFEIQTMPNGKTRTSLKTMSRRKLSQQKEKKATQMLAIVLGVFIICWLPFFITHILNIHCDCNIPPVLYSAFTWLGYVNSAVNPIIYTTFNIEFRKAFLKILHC
# Dopamine transporter = Dopamine transporter (Homo sapiens, UniProt Q01959); test: Receptor binding panel: Dopamine transporter; details: K-2 at 1 × 10^−7 mol/L
# Estrogen = test: Receptor binding panel: Estrogen; details: K-2 at 1 × 10^−7 mol/L
# Endothelin ETA = Endothelin ETA (Homo sapiens, UniProt P25101); test: Receptor binding panel: Endothelin ETA; details: K-2 at 1 × 10^−7 mol/L
# Endothelin ETB = Endothelin ETB (Homo sapiens, UniProt P24530); test: Receptor binding panel: Endothelin ETB; details: K-2 at 1 × 10^−7 mol/L
# Endothelin ETB, sequence (P24530 27-442): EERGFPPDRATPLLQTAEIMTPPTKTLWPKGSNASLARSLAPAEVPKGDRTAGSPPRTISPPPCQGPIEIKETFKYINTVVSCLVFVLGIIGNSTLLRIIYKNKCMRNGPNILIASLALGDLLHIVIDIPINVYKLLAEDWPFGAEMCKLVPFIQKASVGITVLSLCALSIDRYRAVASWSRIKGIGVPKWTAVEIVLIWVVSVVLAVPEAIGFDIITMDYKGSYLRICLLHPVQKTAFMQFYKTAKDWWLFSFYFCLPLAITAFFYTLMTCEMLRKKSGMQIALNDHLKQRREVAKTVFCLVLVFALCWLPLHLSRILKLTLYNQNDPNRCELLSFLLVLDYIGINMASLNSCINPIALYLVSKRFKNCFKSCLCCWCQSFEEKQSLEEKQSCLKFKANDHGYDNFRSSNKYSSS
# GABA A (BZ central) = test: Receptor binding panel: GABA A (BZ central); details: K-2 at 1 × 10^−7 mol/L
# GABA B = GABA B (Homo sapiens, UniProt Q9UBS5); test: Receptor binding panel: GABA B; details: K-2 at 1 × 10^−7 mol/L
# GABA B, sequence (Q9UBS5 15-961 limits assumed): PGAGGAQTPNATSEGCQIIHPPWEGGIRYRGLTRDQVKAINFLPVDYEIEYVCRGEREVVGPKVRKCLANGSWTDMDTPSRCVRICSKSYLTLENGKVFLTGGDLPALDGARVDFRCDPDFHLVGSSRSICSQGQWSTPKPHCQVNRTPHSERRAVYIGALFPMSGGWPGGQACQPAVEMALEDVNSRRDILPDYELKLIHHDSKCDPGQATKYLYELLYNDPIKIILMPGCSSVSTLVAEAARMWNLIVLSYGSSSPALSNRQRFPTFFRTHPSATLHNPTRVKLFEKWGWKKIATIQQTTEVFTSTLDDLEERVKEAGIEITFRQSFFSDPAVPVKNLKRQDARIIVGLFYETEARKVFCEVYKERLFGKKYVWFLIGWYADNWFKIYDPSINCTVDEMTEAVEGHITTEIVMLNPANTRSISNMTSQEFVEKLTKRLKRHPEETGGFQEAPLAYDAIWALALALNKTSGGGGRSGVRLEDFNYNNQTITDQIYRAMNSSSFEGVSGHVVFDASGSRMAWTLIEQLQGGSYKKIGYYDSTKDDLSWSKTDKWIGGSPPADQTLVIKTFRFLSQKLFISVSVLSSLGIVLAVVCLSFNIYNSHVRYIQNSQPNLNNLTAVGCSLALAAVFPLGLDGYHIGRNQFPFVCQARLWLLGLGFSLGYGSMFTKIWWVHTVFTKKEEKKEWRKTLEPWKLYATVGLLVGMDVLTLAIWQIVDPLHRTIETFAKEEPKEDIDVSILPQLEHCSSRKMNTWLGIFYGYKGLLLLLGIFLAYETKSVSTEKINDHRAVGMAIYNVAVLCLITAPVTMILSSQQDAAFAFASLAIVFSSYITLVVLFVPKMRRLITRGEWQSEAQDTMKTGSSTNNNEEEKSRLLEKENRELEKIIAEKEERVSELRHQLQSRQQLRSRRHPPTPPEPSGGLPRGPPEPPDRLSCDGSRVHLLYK
# GABA B, sequence (O75899 41-941 partner limits assumed): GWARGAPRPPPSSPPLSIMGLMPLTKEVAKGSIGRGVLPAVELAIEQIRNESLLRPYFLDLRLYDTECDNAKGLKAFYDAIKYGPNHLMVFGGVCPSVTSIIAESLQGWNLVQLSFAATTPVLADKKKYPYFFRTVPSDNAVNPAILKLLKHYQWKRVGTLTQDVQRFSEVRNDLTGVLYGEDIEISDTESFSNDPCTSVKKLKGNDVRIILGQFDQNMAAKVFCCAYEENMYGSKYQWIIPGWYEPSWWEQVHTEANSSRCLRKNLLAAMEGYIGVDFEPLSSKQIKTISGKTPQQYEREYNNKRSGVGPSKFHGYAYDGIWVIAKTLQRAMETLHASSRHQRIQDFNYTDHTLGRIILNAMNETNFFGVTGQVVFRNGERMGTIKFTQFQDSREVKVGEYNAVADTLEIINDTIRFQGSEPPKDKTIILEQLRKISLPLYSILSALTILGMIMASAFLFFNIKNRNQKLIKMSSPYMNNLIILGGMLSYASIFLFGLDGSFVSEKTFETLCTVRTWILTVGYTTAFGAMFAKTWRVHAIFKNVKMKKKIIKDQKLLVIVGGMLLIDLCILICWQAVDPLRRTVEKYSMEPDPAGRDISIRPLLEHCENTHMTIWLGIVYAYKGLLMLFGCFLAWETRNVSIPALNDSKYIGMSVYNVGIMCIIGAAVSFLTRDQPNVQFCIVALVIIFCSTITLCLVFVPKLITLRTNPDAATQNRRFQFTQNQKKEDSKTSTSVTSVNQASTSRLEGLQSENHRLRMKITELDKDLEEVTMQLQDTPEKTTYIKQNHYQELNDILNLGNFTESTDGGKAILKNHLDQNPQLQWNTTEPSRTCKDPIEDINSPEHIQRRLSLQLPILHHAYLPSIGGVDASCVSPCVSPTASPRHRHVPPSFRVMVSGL
# [1] = test system: Glutamate (NMDA glycine site); test: Receptor binding panel: Glutamate (NMDA glycine site); details: K-2 at 1 × 10^−7 mol/L
# [2] = test system: Glutamate (NMDA phencyclidine site); test: Receptor binding panel: Glutamate (NMDA phencyclidine site); details: K-2 at 1 × 10^−7 mol/L
# [3] = test system: Glycine (Strychnine sensitive); test: Receptor binding panel: Glycine (Strychnine sensitive); details: K-2 at 1 × 10^−7 mol/L
# Histamine H3 = Histamine H3 (Homo sapiens, UniProt Q9Y5N1); test: Receptor binding panel: Histamine H3; details: K-2 at 1 × 10^−7 mol/L
# Melatonin MT1 = Melatonin MT1 (Homo sapiens, UniProt P48039); test: Receptor binding panel: Melatonin MT1; details: K-2 at 1 × 10^−7 mol/L
# Melatonin MT1, sequence (P48039 whole entry): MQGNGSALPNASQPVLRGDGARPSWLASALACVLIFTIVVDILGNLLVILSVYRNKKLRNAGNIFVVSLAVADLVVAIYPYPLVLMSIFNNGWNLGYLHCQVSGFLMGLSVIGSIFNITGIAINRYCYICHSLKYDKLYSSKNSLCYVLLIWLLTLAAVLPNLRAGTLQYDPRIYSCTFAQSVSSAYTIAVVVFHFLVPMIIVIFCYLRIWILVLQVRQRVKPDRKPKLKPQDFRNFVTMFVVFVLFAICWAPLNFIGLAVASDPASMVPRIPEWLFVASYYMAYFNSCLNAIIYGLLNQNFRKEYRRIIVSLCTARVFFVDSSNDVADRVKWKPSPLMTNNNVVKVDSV
# Muscarinic M3 = Muscarinic M3 (Homo sapiens, UniProt P20309); test: Receptor binding panel: Muscarinic M3; details: K-2 at 1 × 10^−7 mol/L
# Opiate μ = Opiate μ (Homo sapiens, UniProt P35372); test: Receptor binding panel: Opiate μ; details: K-2 at 1 × 10^−7 mol/L
# Opiate μ, sequence (P35372 whole entry): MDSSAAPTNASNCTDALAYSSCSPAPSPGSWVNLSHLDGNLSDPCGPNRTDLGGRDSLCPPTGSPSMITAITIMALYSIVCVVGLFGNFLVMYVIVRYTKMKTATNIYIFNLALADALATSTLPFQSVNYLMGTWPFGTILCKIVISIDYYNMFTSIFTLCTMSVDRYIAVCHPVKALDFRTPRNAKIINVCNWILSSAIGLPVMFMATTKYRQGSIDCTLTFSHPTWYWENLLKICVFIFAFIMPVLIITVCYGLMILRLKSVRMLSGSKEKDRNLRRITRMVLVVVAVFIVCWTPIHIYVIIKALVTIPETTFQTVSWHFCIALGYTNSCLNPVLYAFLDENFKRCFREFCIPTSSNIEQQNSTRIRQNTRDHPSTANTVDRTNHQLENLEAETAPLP
# PAF = PAF (Homo sapiens, UniProt P25105); test: Receptor binding panel: PAF; details: K-2 at 1 × 10^−7 mol/L
# Serotonin 5HT1A = Serotonin 5HT1A (Homo sapiens, UniProt P08908); test: Receptor binding panel: Serotonin 5HT1A; details: K-2 at 1 × 10^−7 mol/L
# Serotonin 5HT1A, sequence (P08908 whole entry): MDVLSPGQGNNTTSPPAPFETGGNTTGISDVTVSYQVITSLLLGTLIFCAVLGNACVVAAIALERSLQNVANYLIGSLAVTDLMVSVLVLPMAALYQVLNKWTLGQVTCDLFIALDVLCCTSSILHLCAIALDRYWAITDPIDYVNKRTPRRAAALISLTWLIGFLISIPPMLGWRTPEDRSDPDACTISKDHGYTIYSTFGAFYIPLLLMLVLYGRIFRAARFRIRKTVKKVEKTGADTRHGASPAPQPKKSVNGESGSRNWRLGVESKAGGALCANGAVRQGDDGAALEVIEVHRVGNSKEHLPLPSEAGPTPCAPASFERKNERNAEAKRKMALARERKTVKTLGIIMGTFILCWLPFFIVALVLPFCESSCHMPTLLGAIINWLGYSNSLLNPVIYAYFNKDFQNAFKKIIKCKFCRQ
# Serotonin 5HT3 = Serotonin 5HT3 (Homo sapiens, UniProt P46098); test: Receptor binding panel: Serotonin 5HT3; details: K-2 at 1 × 10^−7 mol/L
# Serotonin 5HT3, sequence (P46098 24-478): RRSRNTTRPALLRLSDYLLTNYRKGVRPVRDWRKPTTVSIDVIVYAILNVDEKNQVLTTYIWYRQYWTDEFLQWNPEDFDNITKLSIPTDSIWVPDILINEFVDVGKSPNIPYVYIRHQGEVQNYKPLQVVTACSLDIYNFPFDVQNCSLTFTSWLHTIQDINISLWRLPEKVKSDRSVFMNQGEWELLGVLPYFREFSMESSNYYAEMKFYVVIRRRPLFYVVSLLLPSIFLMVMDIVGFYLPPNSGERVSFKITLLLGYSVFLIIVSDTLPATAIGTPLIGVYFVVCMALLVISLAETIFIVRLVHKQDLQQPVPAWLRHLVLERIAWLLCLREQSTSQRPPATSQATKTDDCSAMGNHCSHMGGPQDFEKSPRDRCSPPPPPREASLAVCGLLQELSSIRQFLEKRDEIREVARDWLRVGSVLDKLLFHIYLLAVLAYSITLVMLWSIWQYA
# Serotonin transporter = Serotonin transporter (Homo sapiens, UniProt P31645); test: Receptor binding panel: Serotonin transporter; details: K-2 at 1 × 10^−7 mol/L
# AMPA receptor = test: Biochemical experiment: biotinylation and quantitative Western blot of AMPA receptor after administration to living rat; type: in vivo
# Procedure: In the LC-MS/MS experiment, all of the synthesized compounds were dissolved in 100% DMSO so as to have a concentration of 2.5 mM, diluted with physiological saline water immediately before administration (PEPA (1.2 pmol/g), M-1 (12 pmol/g), K-2 (12 pmol/g), M-3 (60 pmol/g), and M-2 (240 pmol/g)), and administered by the parenteral route. In the electrophysiological experiment, PEPA and K-2 were dissolved in 100% DMSO so as to have a concentration of 150 mM, diluted with ACSF as a reflux liquid immediately before the experiment so as to have a concentration of 150 μM and then used. In the biochemical experiment and the PET blocking experiment, K-2 was dissolved in 50% DMSO so as to have a concentration of 2.5 mM and 25 mM, and then administered to a rat at an amount of administration of 1 μl/weight (g) by the parenteral route so as to be 0.5 mg/kg and 5 mg/kg.
# The LC-MS/MS experiment and the biochemical experiment were performed after a rat was allowed to get to sleep by inhalation of isoflurane while anesthesia was maintained using a dedicate carburetor at a concentration of 1.5%. […] In the LC-MS/MS experiment, the hippocampus region was collected in a thickness of approximately 2 mm from the extracted whole brain using Brain matrix (ASI instruments, U.S.), the tissue weight thereof was measured, and then the hippocampus region was put into a 1.5-ml conical tube. […]
# β2-Adrenergic, sequence (P07550 whole entry): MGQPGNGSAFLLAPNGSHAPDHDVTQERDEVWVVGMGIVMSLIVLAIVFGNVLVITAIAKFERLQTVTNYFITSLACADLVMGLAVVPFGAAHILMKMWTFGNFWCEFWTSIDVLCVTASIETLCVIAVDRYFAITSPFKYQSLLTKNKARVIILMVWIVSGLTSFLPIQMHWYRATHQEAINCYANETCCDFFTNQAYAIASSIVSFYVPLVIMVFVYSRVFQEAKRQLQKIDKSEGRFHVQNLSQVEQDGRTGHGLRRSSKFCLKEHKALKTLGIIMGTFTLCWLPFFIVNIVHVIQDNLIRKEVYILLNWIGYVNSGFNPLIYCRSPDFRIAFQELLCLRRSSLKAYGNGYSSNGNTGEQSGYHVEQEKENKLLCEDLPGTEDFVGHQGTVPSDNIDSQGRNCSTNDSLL
structure (smiles),measurement,setting,value
"CN(CCSc1cc(F)c(OCC(N)=O)c(F)c1)S(=O)(=O)c1ccccc1 [K-2, {4-[2-(benzenesulfonyl-methyl-amino)-ethylsulfanil]-2,6-difluoro-phenoxy}-acetamide]",inhibition at 0.1 µM,α2C-Adrenergic,5.82%
same,inhibition at 0.1 µM,β2-Adrenergic,3.39%
same,inhibition at 0.1 µM,Ca channel (Type N),0.31%
same,inhibition at 0.1 µM,Dopamine D2 short,5.33%
same,inhibition at 0.1 µM,Dopamine transporter,0.29%
same,Inhibition (%),Estrogen,2.83%
same,inhibition at 0.1 µM,Endothelin ETA,1.81%
same,inhibition at 0.1 µM,Endothelin ETB,0%
same,Inhibition (%),GABA A (BZ central),1.54%
same,inhibition at 0.1 µM,GABA B,1.9%
same,Inhibition (%),[1],0.64%
same,Inhibition (%),[2],5.02%
same,Inhibition (%),[3],8.46%
same,inhibition at 0.1 µM,Histamine H3,0%
same,inhibition at 0.1 µM,Melatonin MT1,0.11%
same,inhibition at 0.1 µM,Muscarinic M3,5.99%
same,inhibition at 0.1 µM,Opiate μ,8.78%
same,inhibition at 0.1 µM,PAF,0%
same,inhibition at 0.1 µM,Serotonin 5HT1A,1.98%
same,inhibition at 0.1 µM,Serotonin 5HT3,1.57%
same,inhibition at 0.1 µM,Serotonin transporter,0.17%
same,AMPA receptor presented on the surface of the cell membrane,"AMPA receptor; 5 mg/kg of K-2, hippocampus, vs 50% DMSO",136%±14
same,change in the total amount of the AMPA receptors,"AMPA receptor; 5 mg/kg of K-2, same animal",not recognized
